Common to all, as to assay type: biochemical
The target in one assay is Plasmin (Homo sapiens, UniProt P00747). In words: Related protease inhibition: Plasmin (fluorogenic substrate at Km). The conditions noted are these: class symbols per Table 18. Here is the method: (§1) In vitro inhibition of related proteases was determined using an IC50 assay based on standard literature methods (see e.g. Shori et al., Biochem. Pharmacol., 1992, 43, 1209; Bouckaert et al., European Journal of Medicinal Chemistry 110 (2016) 181). Human serine protease enzyme Plasma Kallikrein, KLK1, FXa, Plasmin, Thrombin and Trypsin were assayed for enzymatic activity using an appropriate fluorogenic substrate at Km concentration, FXIa at fixed substrate concentration of 100 μM and various concentrations of the test compound. Protease activity was measured by monitoring the accumulation of liberated fluorescence from the substrate over 5 min at 25° C. The linear rate of fluorescence increase per minute was expressed as percentage (%) activity. IC50 values were calculated as the concentration of inhibitor giving 50% inhibition of the uninhibited enzyme activity (100%).

A further assay concerns the target Thrombin (Homo sapiens, UniProt P00734). The experiment in a line: Related protease inhibition: Thrombin (fluorogenic substrate at Km). The note with it: class symbols per Table 18. The method, then: as §1
For a further assay, the target named is FXa (Homo sapiens, UniProt P00742). In words: Related protease inhibition: FXa (fluorogenic substrate at Km). The conditions noted are these: class symbols per Table 18. The method, then:
as §1

The target of the next assay is KLK1 (Homo sapiens, UniProt P06870). In words: Related protease inhibition: KLK1 (fluorogenic substrate at Km). The conditions noted are these: class symbols per Table 18. Put shortly: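 Read-out is the linear per-minute rise in fluorescence liberated from substrate, monitored for 5 min at 25° C and expressed as % activity. Substrate sat at Km, except for FXIa, which used 100 μM. IC50 values come from the concentration producing half-maximal inhibition.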

In the next assay the target is T1, Plasma Kallikrein (Homo sapiens, UniProt P03952).
T1 construct: FXIIa converts plasma prekallikrein (PK) to plasma kallikrein (PKa)
In words: Related protease inhibition: Plasma Kallikrein (fluorogenic substrate at Km). The conditions noted are these: class symbols per Table 18, read-out: IC50 (human PKal). The gist of the method:
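Human enzymes; fluorogenic substrate at Km for thrombin, trypsin and plasma kallikrein, but fixed at 100 μM for FXIa. Fluorescence release followed over 5 min at 25 °C, linear rate expressed as % of uninhibited activity; IC50 = inhibitor concentration giving 50% inhibition.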

The target in another assay is Trypsin (Homo sapiens, UniProt P07477). In words: Related protease inhibition: Trypsin (fluorogenic substrate at Km). The conditions noted are these: class symbols per Table 18. The method, then:
as §1

In another assay the target is T2, Human Factor XIIa (Homo sapiens, UniProt P00748).
T2 construct: Proteolytic cleavage of FXII to heavy and light chains of FXIIa dramatically increases catalytic activity; purchased Enzyme Research Laboratories
T2 sequence (P00748 373-615 limits assumed): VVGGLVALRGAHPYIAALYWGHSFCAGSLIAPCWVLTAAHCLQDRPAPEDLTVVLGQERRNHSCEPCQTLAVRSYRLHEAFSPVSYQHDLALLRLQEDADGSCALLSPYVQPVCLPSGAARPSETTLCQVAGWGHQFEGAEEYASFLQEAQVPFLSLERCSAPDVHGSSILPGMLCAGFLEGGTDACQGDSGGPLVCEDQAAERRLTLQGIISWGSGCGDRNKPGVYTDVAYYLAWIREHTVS
T2 sequence (P00748 20-372 partner limits assumed): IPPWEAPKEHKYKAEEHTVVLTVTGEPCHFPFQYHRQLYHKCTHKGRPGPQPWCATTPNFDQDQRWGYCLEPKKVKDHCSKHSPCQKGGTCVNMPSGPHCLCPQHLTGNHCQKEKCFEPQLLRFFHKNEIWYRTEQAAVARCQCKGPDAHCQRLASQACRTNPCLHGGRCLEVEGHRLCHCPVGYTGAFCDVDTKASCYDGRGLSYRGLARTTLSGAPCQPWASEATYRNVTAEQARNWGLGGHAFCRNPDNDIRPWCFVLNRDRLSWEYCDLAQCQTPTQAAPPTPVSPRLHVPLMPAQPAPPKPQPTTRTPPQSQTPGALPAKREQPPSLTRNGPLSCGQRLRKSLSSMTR
In words: Determination of FXIIa inhibition (fluorogenic substrate H-DPro-Phe-Arg-AFC, IC50 assay). The note with it: substrate at Km concentration, 25° C.; category scale; read-out: Human FXII IC50 (nm). Put shortly:
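At substrate Km and 25° C., the rate of AFC release from H-DPro-Phe-Arg-AFC by human Factor XIIa was followed for 5 min across compound concentrations. Inhibition was derived as percent of uninhibited rate, giving IC50.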

Structures are written as SMILES.

Sequence of KLK1 (P06870 25-262): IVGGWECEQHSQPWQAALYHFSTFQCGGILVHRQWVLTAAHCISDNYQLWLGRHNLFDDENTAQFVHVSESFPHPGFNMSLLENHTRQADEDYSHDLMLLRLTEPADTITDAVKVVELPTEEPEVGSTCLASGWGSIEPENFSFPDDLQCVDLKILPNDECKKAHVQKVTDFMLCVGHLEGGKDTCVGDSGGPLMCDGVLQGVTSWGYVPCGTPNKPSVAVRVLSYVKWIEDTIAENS
T1 sequence (P03952 391-638 limits assumed): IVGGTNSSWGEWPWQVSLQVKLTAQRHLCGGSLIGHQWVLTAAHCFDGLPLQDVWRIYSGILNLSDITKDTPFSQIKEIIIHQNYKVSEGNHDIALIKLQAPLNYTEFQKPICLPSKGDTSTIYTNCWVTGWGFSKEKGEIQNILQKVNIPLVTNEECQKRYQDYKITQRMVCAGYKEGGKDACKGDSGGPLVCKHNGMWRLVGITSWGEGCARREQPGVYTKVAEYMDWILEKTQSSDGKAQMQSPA
T1 sequence (P03952 20-390 partner limits assumed): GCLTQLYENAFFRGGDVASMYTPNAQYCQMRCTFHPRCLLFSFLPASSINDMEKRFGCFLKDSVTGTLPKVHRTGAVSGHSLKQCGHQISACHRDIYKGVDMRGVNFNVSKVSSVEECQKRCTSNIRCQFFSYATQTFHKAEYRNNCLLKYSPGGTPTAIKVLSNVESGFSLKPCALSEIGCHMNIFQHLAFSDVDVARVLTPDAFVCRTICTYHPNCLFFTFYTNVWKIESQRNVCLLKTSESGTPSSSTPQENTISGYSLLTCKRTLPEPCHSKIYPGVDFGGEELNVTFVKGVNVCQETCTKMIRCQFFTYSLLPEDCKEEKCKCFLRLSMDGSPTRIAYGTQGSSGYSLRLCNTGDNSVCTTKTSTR
Sequence of Plasmin (P00747 581-810 limits assumed): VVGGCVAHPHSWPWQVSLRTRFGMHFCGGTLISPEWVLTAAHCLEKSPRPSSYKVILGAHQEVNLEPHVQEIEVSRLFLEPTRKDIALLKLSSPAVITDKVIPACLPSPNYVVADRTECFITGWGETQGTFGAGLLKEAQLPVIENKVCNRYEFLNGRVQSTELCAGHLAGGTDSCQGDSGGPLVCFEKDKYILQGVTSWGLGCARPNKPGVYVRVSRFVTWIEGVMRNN
Sequence of Plasmin (P00747 97-580 partner limits assumed): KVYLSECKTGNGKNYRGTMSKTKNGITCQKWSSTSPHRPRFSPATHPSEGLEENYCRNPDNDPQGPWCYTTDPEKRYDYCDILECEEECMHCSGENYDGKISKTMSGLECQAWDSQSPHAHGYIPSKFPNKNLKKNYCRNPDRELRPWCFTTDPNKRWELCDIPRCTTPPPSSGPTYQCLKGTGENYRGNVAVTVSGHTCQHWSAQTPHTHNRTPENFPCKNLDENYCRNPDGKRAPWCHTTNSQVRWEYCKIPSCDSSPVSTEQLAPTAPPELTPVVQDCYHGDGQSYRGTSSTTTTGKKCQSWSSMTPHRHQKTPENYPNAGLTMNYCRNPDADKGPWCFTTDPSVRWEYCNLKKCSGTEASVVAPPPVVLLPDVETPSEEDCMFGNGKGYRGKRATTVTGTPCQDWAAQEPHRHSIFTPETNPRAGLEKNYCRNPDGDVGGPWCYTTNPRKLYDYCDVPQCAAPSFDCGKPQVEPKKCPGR
Sequence of FXa (P00742 235-488 limits assumed): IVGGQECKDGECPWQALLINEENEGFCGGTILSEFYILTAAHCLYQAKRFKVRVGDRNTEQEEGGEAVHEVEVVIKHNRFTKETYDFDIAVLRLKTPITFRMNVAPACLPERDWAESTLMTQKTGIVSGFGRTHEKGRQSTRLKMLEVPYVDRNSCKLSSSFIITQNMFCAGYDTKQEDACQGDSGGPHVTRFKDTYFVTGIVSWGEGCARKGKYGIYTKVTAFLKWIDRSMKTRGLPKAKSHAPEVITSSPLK
Sequence of FXa (P00742 41-179 partner limits assumed): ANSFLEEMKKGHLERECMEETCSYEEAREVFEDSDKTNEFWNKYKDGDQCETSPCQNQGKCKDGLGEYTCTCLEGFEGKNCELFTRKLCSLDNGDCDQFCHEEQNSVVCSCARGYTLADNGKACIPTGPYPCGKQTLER

A word on the IC50: it is the concentration that gives 50% inhibition. Turning to `Nc1nccc2c(N3CCC4(CC(COc5ccn6ccnc6c5)C4)C3)cccc12` (single isomer, unassigned) [Example 8806, 5-(trans*-2-((imidazo[1,2-a]pyridin-7-yloxy)methyl)-6-azaspiro[3.4]octan-6-yl)isoquinolin-1-amine], the IC50 on Plasmin is > 40 µM; on Thrombin, > 40 µM; on FXa, > 40 µM; on KLK1, 10 to 40 µM; on Plasma Kallikrein, > 40 µM; against Trypsin, > 40 µM. Besides, the half-inhibitory concentration (IC50) at Human Factor XIIa lay in the range of 100 to 300 nM.

With `Nc1nccc2c(NCC34COC(COc5ccc6nnc(C(F)F)n6n5)(C3)C4)cccc12` [Example 2204, N5-((1-(((3-(difluoromethyl)-[1,2,4]triazolo[4,3-b]pyridazin-6-yl)oxy)methyl)-2-oxabicyclo[2.1.1]hexan-4-yl)methyl)isoquinoline-1,5-diamine], the IC50 against Thrombin was > 40 µM; at FXa, > 40 µM; against KLK1, 3 to 10 µM; on Plasma Kallikrein, > 40 µM; on Human Factor XIIa, 300 to 1000 nM.

As for `Cn1ccc(OCC23CC(CNc4cccc5c(N)nccc45)(CO2)C3)cc1=O` [Example 2205, 4-((4-(((1-aminoisoquinolin-5-yl)amino)methyl)-2-oxabicyclo[2.1.1]hexan-1-yl)methoxy)-1-methylpyridin-2(1H)-one], the half-maximal inhibitory concentration (IC50) against Plasmin is > 40 µM; against Thrombin it was > 40 µM; at FXa, > 40 µM; at KLK1, 10 to 40 µM; on Plasma Kallikrein, > 40 µM; against Trypsin it was > 40 µM. Further, the IC50 at Human Factor XIIa was in the range of 300 to 1000 nM.

For `Cc1cnc2ccc(OCC34CC(CNc5cccc6c(N)nccc56)(CO3)C4)cn12` [Example 2212, N5-((1-(((3-methylimidazo[1,2-a]pyridin-6-yl)oxy)methyl)-2-oxabicyclo[2.1.1]hexan-4-yl)methyl)isoquinoline-1,5-diamine], the IC50 on Plasmin is > 40 µM; against Thrombin, > 40 µM; against FXa it was 10 to 40 µM; on KLK1 it was 1 to 3 µM; at Plasma Kallikrein it was 10 to 40 µM; against Trypsin it was 10 to 40 µM. For the same compound, the IC50 at Human Factor XIIa lay in the range of 10 to 100 nM.

In the case of `Nc1nccc2c(NC[C@H]3C[C@H](COc4ccn5ccnc5c4)C3)cccc12` [Example 4401, N5-((trans-3-((imidazo[1,2-a]pyridin-7-yloxy)methyl)cyclobutyl)methyl)isoquinoline-1,5-diamine], the IC50 is > 40 µM on Thrombin; > 40 µM at FXa; 1 to 3 µM at KLK1; > 40 µM at Plasma Kallikrein; 300 to 1000 nM at Human Factor XIIa.

Take `Nc1nccc2c(NC[C@H]3C[C@@H](COc4ccn5ccnc5c4)C3)cccc12` [Example 5003, N5-((cis-3-((imidazo[1,2-a]pyridin-7-yloxy)methyl)cyclobutyl)methyl)isoquinoline-1,5-diamine]: the IC50 at Thrombin was > 40 µM; against FXa, > 40 µM; against KLK1, 3 to 10 µM; at Plasma Kallikrein it was > 40 µM; on Human Factor XIIa it was 100 to 300 nM.

For `Nc1nccc2c(NCC34CC(COc5ccn6ccnc6c5)(CO3)C4)cccc12` [Example 6601, 5-N-[[4-(Imidazo[1,2-a]pyridin-7-yloxymethyl)-2-oxabicyclo[2.1.1]hexan-1-yl]methyl]isoquinoline-1,5-diamine], the IC50 on Thrombin was 10 to 40 µM; on FXa, 10 to 40 µM; against KLK1, 3 to 10 µM; on Plasma Kallikrein it was > 40 µM; on Human Factor XIIa, 10 to 100 nM.

Turning to `Cc1cc2c(NCC34CC(COc5ccn6ccnc6c5)(CO3)C4)ccnc2[nH]1` [Example 6605, N-((4-((imidazo[1,2-a]pyridin-7-yloxy)methyl)-2-oxabicyclo[2.1.1]hexan-1-yl)methyl)-2-methyl-1H-pyrrolo[2,3-b]pyridin-4-amine], the concentration for half-maximal inhibition (IC50) was 10 to 40 µM against Thrombin; 10 to 40 µM at FXa; 10 to 40 µM against KLK1; > 40 µM on Plasma Kallikrein; 3000 to 10000 nM at Human Factor XIIa.

On to `Nc1nccc2c(NCC34CC(COc5ccc6nnc(C(F)F)n6n5)(CO3)C4)cccc12` [Example 6608, N5-((4-(((3-(difluoromethyl)-[1,2,4]triazolo[4,3-b]pyridazin-6-yl)oxy)methyl)-2-oxabicyclo[2.1.1]hexan-1-yl)methyl)isoquinoline-1,5-diamine], for which the IC50 at Thrombin was > 40 µM; on FXa, > 40 µM; against KLK1 it was 3 to 10 µM; at Plasma Kallikrein it was > 40 µM; on Human Factor XIIa, 300 to 1000 nM.

In the case of `Cn1ccc(OCC23COC(CNc4cccc5c(N)nccc45)(C2)C3)cc1=O` [Example 6609, 4-((1-(((1-aminoisoquinolin-5-yl)amino)methyl)-2-oxabicyclo[2.1.1]hexan-4-yl)methoxy)-1-methylpyridin-2(1H)-one], the IC50 is > 40 µM against Thrombin; > 40 µM against FXa; 3 to 10 µM on KLK1; > 40 µM at Plasma Kallikrein; 100 to 300 nM on Human Factor XIIa.

Take `Nc1nccc2c(NCC34CC(COc5ccc6c(c5)CNC6=O)(CO3)C4)cccc12` [Example 6618, 5-[[1-[[(1-Aminoisoquinolin-5-yl)amino]methyl]-2-oxabicyclo[2.1.1]hexan-4-yl]methoxy]-2,3-dihydroisoindol-1-one]: the IC50 is > 40 µM against Plasmin; > 40 µM against Thrombin; 10 to 40 µM against FXa; 3 to 10 µM against KLK1; > 40 µM on Plasma Kallikrein; 10 to 40 µM at Trypsin. Further, the IC50 on Human Factor XIIa lay within 10 to 100 nM.

Regarding `Nc1nccc2c(NCC34CC(COc5ccc6nnc(C(F)F)n6c5)(CO3)C4)cccc12` [Example 6620, N5-((4-(((3-(difluoromethyl)-[1,2,4]triazolo[4,3-a]pyridin-6-yl)oxy)methyl)-2-oxabicyclo[2.1.1]hexan-1-yl)methyl)isoquinoline-1,5-diamine], the IC50 against Plasmin was > 40 µM; on Thrombin, > 40 µM; against FXa, > 40 µM; on KLK1, 3 to 10 µM; on Plasma Kallikrein it was > 40 µM; on Trypsin it was 3 to 10 µM. For the same compound, on Human Factor XIIa, the half-maximal inhibitory concentration (IC50) was in the range of 300 to 1000 nM.

For `Nc1nccc2c(NCC34CC(COc5ccc6nccn6c5)(CCO3)C4)cccc12` [Example 10904, N5-((5-((imidazo[1,2-a]pyridin-6-yloxy)methyl)-2-oxabicyclo[3.1.1]heptan-1-yl)methyl)isoquinoline-1,5-diamine], the IC50 at Thrombin was 10 to 40 µM; against FXa, > 40 µM; at KLK1, 3 to 10 µM; at Plasma Kallikrein it was > 40 µM; on Human Factor XIIa, 10 to 100 nM.

For the compound `Cc1cc2c(NCC34CC(COc5ccn6ccnc6c5)(CCO3)C4)ccnc2[nH]1` [Example 10907, N-[[5-(Imidazo[1,2-a]pyridin-7-yloxymethyl)-2-oxabicyclo[3.1.1]heptan-1-yl]methyl]-2-methyl-1H-pyrrolo[2,3-b]pyridin-4-amine], the 50% inhibitory concentration (IC50) against Thrombin was > 40 µM; on FXa, > 40 µM; on KLK1 it was > 40 µM; on Plasma Kallikrein it was > 40 µM; on Human Factor XIIa it was 1000 to 3000 nM.

For `Cn1ccc(OCC23CN(C(=O)NCc4ccccc4)C(CNc4cccc5c(N)nccc45)(C2)C3)cc1=O` [Example 12017, 1-(((1-aminoisoquinolin-5-yl)amino)methyl)-N-benzyl-4-(((1-methyl-2-oxo-1,2-dihydropyridin-4-yl)oxy)methyl)-2-azabicyclo[2.1.1]hexane-2-carboxamide], the IC50 on Plasmin was 10 to 40 µM; at Thrombin, > 40 µM; at FXa, 10 to 40 µM; at KLK1 it was 3 to 10 µM; at Plasma Kallikrein it was 10 to 40 µM; against Trypsin, > 40 µM.

The record behind these values is patent US20240327412A1, “FACTOR XIIA INHIBITORS” (KALVISTA PHARMACEUTICALS LIMITED, priority 2021, published 2024).
